Experimental data: patent publication US6479435B1, “Diaryl ethers and processes for their preparation and herbicidal and desiccant compositions containing them” (ISK Americas Incorporated, priority 1997, dated 2002)

Assays:
Assay type in all cases: in vivo
[1] = system: common ragweed (Ambrosia artemisiifolia L., AMBEL); assay: Post-emerge greenhouse herbicide test, phytotoxicity rating; settings: 14 days after application; for phytotoxicity rating AMBEL: scale 0-100
How it was run: (§1)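 Compounds in acetone with 0.25% v/v non-ionic surfactant were track-sprayed at 187 l/ha over plants at the 2-3 leaf stage, at 63 to 1000 g ai/ha. Pots were bottom-watered. Injury was scored visually 14 days later on a 0-100 scale, where 0 is no damage and 100 is complete plant death.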

[2] = system: Johnsongrass (Sorghum halepense, SORHA); assay: Pre-emerge greenhouse herbicide test, phytotoxicity rating; settings: 14 days after application, rating scale 0-100
How it was run: (§2)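 Seeds sown in sandy loam mix one day before track-sprayer application of compounds in acetone at 125–1000 g ai/ha (187 l/ha), then surface-watered to incorporate and bottom-watered. Visual rating 14 days after application on a 0–100 scale (0 = no damage, 100 = all plants dead).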

[3] = system: lambsquarters (Chenopodium album, CHEAL); assay: as above; settings: 14 days after application, rating scale 0-100
How it was run: as §2

[4] = system: large crabgrass (Digitaria sanguinalis, DIGSA); assay: as above; settings: 14 days after application, rating scale 0-100
How it was run: as §2

[5] = system: green foxtail (Setaria viridis, SETVI); assay: as above; settings: 14 days after application, rating scale 0-100
How it was run: as §2

[6] = system: common ragweed (Ambrosia artemisiifolia L., AMBEL); assay: as above; settings: 14 days after application, rating scale 0-100
How it was run: as §2

[7] = system: barnyardgrass (Echinochloa crusgalli, ECHCG); assay: as above; settings: 14 days after application, rating scale 0-100
How it was run: as §2

[8] = system: sicklepod (Cassia obtusifolia, CASOB); assay: as above; settings: 14 days after application, rating scale 0-100
How it was run: as §2

[9] = system: redroot pigweed (Amaranthus retroflexus, AMARE); assay: as above; settings: 14 days after application, rating scale 0-100
How it was run: as §2

[10] = system: ivyleaf morningglory (Ipomoea hederacea, IPOHE); assay: as above; settings: 14 days after application, rating scale 0-100
How it was run: as §2

[11] = system: velvetleaf (Abutilon theophrasti, ABUTH); assay: as above; settings: 14 days after application, rating scale 0-100
How it was run: as §2

[12] = system: soybean (Glycine max L., var. Pella 86, SOY); assay: Pre-emerge greenhouse test, crop damage rating; design: key to SOY crop damage rating: 0 = no damage, 100 = complete death of all plants; settings: 14 days after application, rating scale 0-100
How it was run: as §2

[13] = system: Johnsongrass (Sorghum halepense, SORHA); assay: Post-emerge greenhouse herbicide test, phytotoxicity rating; settings: 14 days after application; for phytotoxicity rating SORHA: scale 0-100
How it was run: as §1

[14] = system: lambsquarters (Chenopodium album, CHEAL); assay: as above; settings: 14 days after application; for phytotoxicity rating CHEAL: scale 0-100
How it was run: as §1

[15] = system: large crabgrass (Digitaria sanguinalis, DIGSA); assay: as above; settings: 14 days after application; for phytotoxicity rating DIGSA: scale 0-100
How it was run: as §1

[16] = system: green foxtail (Setaria viridis, SETVI); assay: as above; settings: 14 days after application; for phytotoxicity rating SETVI: scale 0-100
How it was run: as §1

[17] = system: barnyardgrass (Echinochloa crusgalli, ECHCG); assay: as above; settings: 14 days after application; for phytotoxicity rating ECHCG: scale 0-100
How it was run: as §1

[18] = system: redroot pigweed (Amaranthus retroflexus, AMARE); assay: as above; settings: 14 days after application; for phytotoxicity rating AMARE: scale 0-100
How it was run: as §1

[19] = system: ivyleaf morningglory (Ipomoea hederacea, IPOHE); assay: as above; settings: 14 days after application; for phytotoxicity rating IPOHE: scale 0-100
How it was run: as §1

[20] = system: velvetleaf (Abutilon theophrasti, ABUTH); assay: as above; settings: 14 days after application; for phytotoxicity rating ABUTH: scale 0-100
How it was run: as §1

[21] = system: upland rice (Oryza sp., var.Tebonnet, RICE); assay: Post-emerge greenhouse test, crop damage rating; settings: 14 days after application; for crop damage rating RICE: scale 0-100
How it was run: as §1

[22] = system: field corn (Zea mays L., var. Dekalb 535, CORN); assay: Post-emerge greenhouse test, crop damage rating; settings: 14 days after application; for crop damage rating CORN: scale 0-100
How it was run: as §1

[23] = system: soybean (Glycine max L., var. Pella 86, SOY); assay: Post-emerge greenhouse test, crop damage rating; design: key to crop damage rating SOY: 0-100 scale: 0 = no damage, 100 = complete death of all plants; settings: 14 days after application; for crop damage rating SOY: scale 0-100
How it was run: as §1

[24] = system: upland rice (Oryza sp., var.Tebonnet, RICE); assay: Pre-emerge greenhouse test, crop damage rating; settings: 14 days after application, rating scale 0-100
How it was run: as §2

[25] = system: field corn (Zea mays L., var. Dekalb 535, CORN); assay: Pre-emerge greenhouse test, crop damage rating; settings: 14 days after application, rating scale 0-100
How it was run: as §2

SMILES: Nc1ccc(Oc2cc(-n3c(=O)n4n(c3=S)CCCC4)c(F)cc2Cl)nc1 [Compound 8-24]
- phytotoxicity rating AMBEL ([1]; rate 63 g ai/ha): 0
- phytotoxicity rating AMBEL ([1]; rate 500 g ai/ha): 50
- SORHA phytotoxicity rating ([2]; Rate 125 g al/ha): 20
- SORHA phytotoxicity rating ([2]; Rate 500 g al/ha): 20
- CHEAL phytotoxicity rating ([3]; Rate 125 g al/ha): 99
- CHEAL phytotoxicity rating ([3]; Rate 500 g al/ha): 100
- DIGSA phytotoxicity rating ([4]; Rate 125 g al/ha): 0
- DIGSA phytotoxicity rating ([4]; Rate 500 g al/ha): 30
- SETVI phytotoxicity rating ([5]; Rate 125 g al/ha): 30
- SETVI phytotoxicity rating ([5]; Rate 500 g al/ha): 80
- AMBEL phytotoxicity rating ([6]; Rate 125 g al/ha): 80
- AMBEL phytotoxicity rating ([6]; Rate 500 g al/ha): 100
- ECHCG phytotoxicity rating ([7]; Rate 125 g al/ha): 0
- ECHCG phytotoxicity rating ([7]; Rate 500 g al/ha): 40
- CASOB phytotoxicity rating ([8]; Rate 125 g al/ha): 70
- CASOB phytotoxicity rating ([8]; Rate 500 g al/ha): 50
- AMARE phytotoxicity rating ([9]; Rate 125 g al/ha): 95
- AMARE phytotoxicity rating ([9]; Rate 500 g al/ha): 100
- IPOHE phytotoxicity rating ([10]; Rate 125 g al/ha): 0
- IPOHE phytotoxicity rating ([10]; Rate 500 g al/ha): 70
- ABUTH phytotoxicity rating ([11]; Rate 125 g al/ha): 100
- ABUTH phytotoxicity rating ([11]; Rate 500 g al/ha): 100
- SOY crop damage rating ([12]; Rate 125 g al/ha): 0
- SOY crop damage rating ([12]; Rate 500 g al/ha): 30
- phytotoxicity rating SORHA ([13]; rate 63 g ai/ha): 0
- phytotoxicity rating SORHA ([13]; rate 500 g ai/ha): 50
- phytotoxicity rating CHEAL ([14]; rate 63 g ai/ha): 50
- phytotoxicity rating CHEAL ([14]; rate 500 g ai/ha): 80
- phytotoxicity rating DIGSA ([15]; rate 63 g ai/ha): 50
- phytotoxicity rating DIGSA ([15]; rate 500 g ai/ha): 20
- phytotoxicity rating SETVI ([16]; rate 63 g ai/ha): 0
- phytotoxicity rating SETVI ([16]; rate 500 g ai/ha): 20
- phytotoxicity rating ECHCG ([17]; rate 63 g ai/ha): 10
- phytotoxicity rating ECHCG ([17]; rate 500 g ai/ha): 0
- phytotoxicity rating AMARE ([18]; rate 63 g ai/ha): 100
- phytotoxicity rating AMARE ([18]; rate 500 g ai/ha): 100
- phytotoxicity rating IPOHE ([19]; rate 63 g ai/ha): 70
- phytotoxicity rating IPOHE ([19]; rate 500 g ai/ha): 80
- phytotoxicity rating ABUTH ([20]; rate 63 g ai/ha): 95
- phytotoxicity rating ABUTH ([20]; rate 500 g ai/ha): 100
- crop damage rating RICE ([21]; rate 63 g ai/ha): 20
- crop damage rating RICE ([21]; rate 500 g ai/ha): 30
- crop damage rating CORN ([22]; rate 63 g ai/ha): 10
- crop damage rating CORN ([22]; rate 500 g ai/ha): 10
- crop damage rating SOY ([23]; rate 63 g ai/ha): 0
- crop damage rating SOY ([23]; rate 500 g ai/ha): 40
- RICE crop damage rating ([24]; Rate 125 g al/ha): 0
- RICE crop damage rating ([24]; Rate 500 g al/ha): 20
- CORN crop damage rating ([25]; Rate 125 g al/ha): 0
- CORN crop damage rating ([25]; Rate 500 g al/ha): 0

SMILES: O=c1n(CCCF)nnn1-c1cc(Oc2ncccn2)c(Cl)cc1Cl [Compound 6-14]
- AMBEL phytotoxicity rating (0-100) ([1]; 63 g al/ha): 0
- AMBEL phytotoxicity rating (0-100) ([1]; 500 g al/ha): 50
- phytotoxicity rating SORHA ([2]; 125 g ai/ha): 80
- phytotoxicity rating SORHA ([2]; 500 g ai/ha): 100
- phytotoxicity rating CHEAL ([3]; 125 g ai/ha): 100
- phytotoxicity rating CHEAL ([3]; 500 g ai/ha): 100
- phytotoxicity rating DIGSA ([4]; 125 g ai/ha): 90
- phytotoxicity rating DIGSA ([4]; 500 g ai/ha): 100
- phytotoxicity rating SETVI ([5]; 125 g ai/ha): 100
- phytotoxicity rating SETVI ([5]; 500 g ai/ha): 100
- phytotoxicity rating AMBEL ([6]; 125 g ai/ha): 20
- phytotoxicity rating AMBEL ([6]; 500 g ai/ha): 95
- phytotoxicity rating ECHCG ([7]; 125 g ai/ha): 60
- phytotoxicity rating ECHCG ([7]; 500 g ai/ha): 99
- phytotoxicity rating CASOB ([8]; 125 g ai/ha): 60
- phytotoxicity rating CASOB ([8]; 500 g ai/ha): 90
- phytotoxicity rating AMARE ([9]; 125 g ai/ha): 100
- phytotoxicity rating AMARE ([9]; 500 g ai/ha): 100
- phytotoxicity rating IPOHE ([10]; 125 g ai/ha): 60
- phytotoxicity rating IPOHE ([10]; 500 g ai/ha): 95
- phytotoxicity rating ABUTH ([11]; 125 g ai/ha): 100
- phytotoxicity rating ABUTH ([11]; 500 g ai/ha): 100
- crop damage rating SOY ([12]; 125 g ai/ha): 10
- crop damage rating SOY ([12]; 500 g ai/ha): 80
- SORHA phytotoxicity rating (0-100) ([13]; 63 g al/ha): 30
- SORHA phytotoxicity rating (0-100) ([13]; 500 g al/ha): 90
- CHEAL phytotoxicity rating (0-100) ([14]; 63 g al/ha): 70
- CHEAL phytotoxicity rating (0-100) ([14]; 500 g al/ha): 95
- DIGSA phytotoxicity rating (0-100) ([15]; 63 g al/ha): 0
- DIGSA phytotoxicity rating (0-100) ([15]; 500 g al/ha): 30
- SETVI phytotoxicity rating (0-100) ([16]; 63 g al/ha): 0
- SETVI phytotoxicity rating (0-100) ([16]; 500 g al/ha): 70
- ECHCG phytotoxicity rating (0-100) ([17]; 63 g al/ha): 0
- ECHCG phytotoxicity rating (0-100) ([17]; 500 g al/ha): 60
- AMARE phytotoxicity rating (0-100) ([18]; 63 g al/ha): 20
- AMARE phytotoxicity rating (0-100) ([18]; 500 g al/ha): 100
- IPOHE phytotoxicity rating (0-100) ([19]; 63 g al/ha): 50
- IPOHE phytotoxicity rating (0-100) ([19]; 500 g al/ha): 100
- ABUTH phytotoxicity rating (0-100) ([20]; 63 g al/ha): 70
- ABUTH phytotoxicity rating (0-100) ([20]; 500 g al/ha): 100
- RICE crop damage rating (0-100) ([21]; 63 g al/ha): 20
- RICE crop damage rating (0-100) ([21]; 500 g al/ha): 50
- CORN crop damage rating (0-100) ([22]; 63 g al/ha): 0
- CORN crop damage rating (0-100) ([22]; 500 g al/ha): 20
- SOY crop damage rating (0-100) ([23]; 63 g al/ha): 50
- SOY crop damage rating (0-100) ([23]; 500 g al/ha): 90
- crop damage rating RICE ([24]; 125 g ai/ha): 30
- crop damage rating RICE ([24]; 500 g ai/ha): 80
- crop damage rating CORN ([25]; 125 g ai/ha): 20
- crop damage rating CORN ([25]; 500 g ai/ha): 40
